These results are taken from PMC3551614 (Journal of the American Chemical Society, 2012).

Molecules are shown by their SMILES. Numbered stars: 1 amine (or outer) side, 2 acyl side, 3 side chain; on linkers, the order of the positions; unused ones are H or OH. Bridge positions count the residues as written; N and C are the ends. Square brackets hold non-standard residues; d marks the D form. Peptide text beside a SMILES is read from it. * marks the point of attachment. 5FAM = O=C1OC2(c3ccc(O)cc3Oc3cc(O)ccc32)c2ccc(C(=O)*)cc21; X1 = O=C([C@H]1CNC[C@@H]1N[*:1])[*:2]; β3hE = N[C@@H](CCC(=O)O)CC(=O)O; β3hN = NC(=O)C[C@H](N)CC(=O)O; β3hL = CC(C)C[C@H](N)CC(=O)O; Nle = CCCC[C@H](N)C(=O)O

This test concerns the target T1, VEGF (Homo sapiens, UniProt P15692).
T1 sequence (P15692 1-191 isoform P15692-4): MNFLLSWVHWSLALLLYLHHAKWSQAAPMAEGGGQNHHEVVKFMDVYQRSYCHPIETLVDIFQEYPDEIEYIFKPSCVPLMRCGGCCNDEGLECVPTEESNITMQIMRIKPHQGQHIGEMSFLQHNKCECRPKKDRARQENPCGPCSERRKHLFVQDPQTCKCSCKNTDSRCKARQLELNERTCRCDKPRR
The test is described as follows: direct FP binding of N-terminal fluorescein derivatives. Conditions: domain 2 of VEGFR1 as competitor.

Turning to `CCCC[C@@H]1NC(=O)[C@H](C(C)C)NC(=O)[C@H](Cc2c[nH]cn2)NC(=O)[C@H]([C@@H](C)CC)NC(=O)[C@H](CC(=O)O)NC(=O)[C@@H](NC(=O)C[C@H](CC(N)=O)NC(=O)[C@@H]2CCCN2C(=O)C[C@H](CCC(=O)O)NC(=O)[C@@H](NC(=O)c2ccc3c(c2)C(=O)OC32c3ccc(O)cc3Oc3cc(O)ccc32)C(C)C)CSSC[C@@H](C(=O)N[C@@H](Cc2ccccc2)C(=O)N[C@H]2CNC[C@@H]2C(=O)N[C@@H](CCCNC(=N)N)C(=O)N[C@H](CC(N)=O)CC(C)C)NC(=O)[C@H](CCC(=O)O)NC(=O)[C@H](Cc2c[nH]c3ccccc23)NC(=O)C[C@H](CCC(=O)O)NC(=O)[C@H](Cc2c[nH]c3ccccc23)NC1=O` [Flu-3] (5FAM-V[β3hE]P[β3hN]CDIHV[Nle]W[β3hE]WECF[X1]R[β3hL]-NH2; disulfide 5-15; N-terminus and C-terminus assumed), the “displacement from VEGF by domain 2 of VEGFR1” value was “displaces”.
